Values belong to the compound of their own block, whether it stands above or below them.
How the values were obtained:
[1] = target: Mitogen-activated protein kinase kinase kinase 9 (Homo sapiens) (UniProt P80192); experiment: Inhibition of human recombinant MLK1 at 500 nM related to control ULK1
[2] = target: Serine/threonine-protein kinase PAK 5 (Homo sapiens) (UniProt Q9P286); experiment: Inhibition of human recombinant PAK5 at 500 nM related to control ULK1
[3] = target: T1, Serine/threonine-protein kinase DCLK3 (Homo sapiens) (UniProt Q9C098); experiment: Inhibition of human recombinant DCAMKL3 at 500 nM related to control ULK1
T1 sequence (whole entry): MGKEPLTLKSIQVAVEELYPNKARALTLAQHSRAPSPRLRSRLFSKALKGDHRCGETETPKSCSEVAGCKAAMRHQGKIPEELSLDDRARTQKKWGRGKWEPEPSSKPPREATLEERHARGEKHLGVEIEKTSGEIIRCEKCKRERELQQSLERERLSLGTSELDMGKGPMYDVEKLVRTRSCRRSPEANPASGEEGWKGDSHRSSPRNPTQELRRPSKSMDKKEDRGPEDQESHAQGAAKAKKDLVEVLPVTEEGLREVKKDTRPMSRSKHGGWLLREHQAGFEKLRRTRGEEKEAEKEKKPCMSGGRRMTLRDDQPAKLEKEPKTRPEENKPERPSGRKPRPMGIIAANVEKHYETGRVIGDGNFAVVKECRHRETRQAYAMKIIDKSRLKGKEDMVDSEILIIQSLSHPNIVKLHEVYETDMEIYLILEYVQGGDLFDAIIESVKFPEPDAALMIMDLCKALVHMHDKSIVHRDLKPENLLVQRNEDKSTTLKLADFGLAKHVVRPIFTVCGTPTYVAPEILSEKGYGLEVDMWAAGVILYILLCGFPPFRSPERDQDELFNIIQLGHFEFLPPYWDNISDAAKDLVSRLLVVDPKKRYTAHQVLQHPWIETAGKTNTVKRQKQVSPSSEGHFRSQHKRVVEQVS

[4] = target: T2, Tyrosine-protein kinase ITK/TSK (Homo sapiens) (UniProt Q08881); experiment: Inhibition of human recombinant ITK at 500 nM related to control ULK1
T2 sequence (whole entry): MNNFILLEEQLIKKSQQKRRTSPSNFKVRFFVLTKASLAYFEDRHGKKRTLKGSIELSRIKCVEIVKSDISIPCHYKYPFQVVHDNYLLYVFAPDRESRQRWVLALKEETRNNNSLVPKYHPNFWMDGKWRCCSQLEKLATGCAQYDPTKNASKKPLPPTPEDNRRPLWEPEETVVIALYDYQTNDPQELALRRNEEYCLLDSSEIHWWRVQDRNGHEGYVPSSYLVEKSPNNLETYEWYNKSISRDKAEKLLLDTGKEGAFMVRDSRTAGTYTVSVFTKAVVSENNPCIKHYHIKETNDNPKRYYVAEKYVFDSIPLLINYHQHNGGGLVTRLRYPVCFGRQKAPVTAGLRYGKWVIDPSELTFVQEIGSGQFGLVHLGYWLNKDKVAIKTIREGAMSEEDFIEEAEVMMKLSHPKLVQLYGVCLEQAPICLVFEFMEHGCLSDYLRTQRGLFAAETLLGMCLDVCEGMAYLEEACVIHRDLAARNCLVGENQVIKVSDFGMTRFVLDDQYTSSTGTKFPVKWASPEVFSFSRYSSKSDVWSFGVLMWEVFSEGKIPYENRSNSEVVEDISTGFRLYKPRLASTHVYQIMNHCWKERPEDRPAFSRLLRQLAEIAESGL

[5] = target: Wee1-like protein kinase 2 (Homo sapiens) (UniProt P0C1S8); experiment: Inhibition of human recombinant Wee1B at 500 nM in presence of ATP by radiometric assay relative to control
[6] = target: Dual specificity mitogen-activated protein kinase kinase 2 (Homo sapiens) (UniProt P36507); experiment: Inhibition of human recombinant MAP2K2 at 500 nM in presence of ATP by radiometric assay relative to control
[7] = target: Serine/threonine-protein kinase PLK2 (Homo sapiens) (UniProt Q9NYY3); experiment: Inhibition of human recombinant PLK2 at 500 nM in presence of ATP by radiometric assay relative to control
Chain of Serine/threonine-protein kinase PLK2 (Homo sapiens) (Q9NYY3 whole entry, looked up): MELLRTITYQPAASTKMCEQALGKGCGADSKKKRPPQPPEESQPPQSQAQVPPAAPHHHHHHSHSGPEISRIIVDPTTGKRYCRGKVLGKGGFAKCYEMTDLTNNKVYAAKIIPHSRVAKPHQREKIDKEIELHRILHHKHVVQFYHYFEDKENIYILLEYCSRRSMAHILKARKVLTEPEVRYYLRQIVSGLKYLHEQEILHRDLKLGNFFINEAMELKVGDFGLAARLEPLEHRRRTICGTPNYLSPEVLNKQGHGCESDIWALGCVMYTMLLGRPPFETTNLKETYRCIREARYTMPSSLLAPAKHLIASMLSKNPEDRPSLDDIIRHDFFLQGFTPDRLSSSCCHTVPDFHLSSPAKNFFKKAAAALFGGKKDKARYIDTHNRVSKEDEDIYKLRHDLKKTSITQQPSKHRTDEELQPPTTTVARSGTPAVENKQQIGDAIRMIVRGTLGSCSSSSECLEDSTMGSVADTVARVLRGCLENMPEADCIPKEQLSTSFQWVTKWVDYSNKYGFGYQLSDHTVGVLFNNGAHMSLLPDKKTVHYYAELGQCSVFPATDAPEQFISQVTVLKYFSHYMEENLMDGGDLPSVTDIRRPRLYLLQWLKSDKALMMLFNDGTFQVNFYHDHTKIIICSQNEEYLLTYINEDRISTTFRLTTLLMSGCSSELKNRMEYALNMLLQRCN

[8] = target: Mitogen-activated protein kinase kinase kinase kinase 1 (Homo sapiens) (UniProt Q92918); experiment: Inhibition of human recombinant HPK1 at 500 nM related to control ULK1
Chain of Mitogen-activated protein kinase kinase kinase kinase 1 (Homo sapiens) (Q92918 whole entry, looked up): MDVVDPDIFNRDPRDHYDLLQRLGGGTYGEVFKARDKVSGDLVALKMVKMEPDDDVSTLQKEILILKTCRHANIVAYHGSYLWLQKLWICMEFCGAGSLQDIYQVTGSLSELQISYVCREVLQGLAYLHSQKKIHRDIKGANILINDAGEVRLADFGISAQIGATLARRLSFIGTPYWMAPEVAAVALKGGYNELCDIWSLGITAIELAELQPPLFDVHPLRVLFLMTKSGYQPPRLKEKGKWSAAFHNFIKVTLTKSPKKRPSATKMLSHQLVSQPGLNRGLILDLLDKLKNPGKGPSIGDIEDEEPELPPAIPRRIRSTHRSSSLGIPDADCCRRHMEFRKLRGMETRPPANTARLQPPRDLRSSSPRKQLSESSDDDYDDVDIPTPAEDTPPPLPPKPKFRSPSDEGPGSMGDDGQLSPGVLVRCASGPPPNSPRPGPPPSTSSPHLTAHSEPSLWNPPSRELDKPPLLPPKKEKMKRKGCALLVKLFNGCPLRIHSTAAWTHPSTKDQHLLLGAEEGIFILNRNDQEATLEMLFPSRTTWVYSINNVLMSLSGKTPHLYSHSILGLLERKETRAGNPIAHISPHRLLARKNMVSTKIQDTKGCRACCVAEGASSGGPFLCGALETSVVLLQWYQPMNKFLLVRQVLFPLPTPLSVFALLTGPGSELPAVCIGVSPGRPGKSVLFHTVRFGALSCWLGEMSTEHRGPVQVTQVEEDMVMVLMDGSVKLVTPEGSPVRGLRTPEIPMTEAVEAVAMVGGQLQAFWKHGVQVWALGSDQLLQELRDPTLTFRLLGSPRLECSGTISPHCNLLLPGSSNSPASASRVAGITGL

[9] = target: Serine/threonine-protein kinase Nek7 (Homo sapiens) (UniProt Q8TDX7); experiment: Inhibition of human recombinant NEK7 at 40 nM in presence of ATP by radiometric assay relative to control
Chain of Serine/threonine-protein kinase Nek7 (Homo sapiens) (Q8TDX7 whole entry, looked up): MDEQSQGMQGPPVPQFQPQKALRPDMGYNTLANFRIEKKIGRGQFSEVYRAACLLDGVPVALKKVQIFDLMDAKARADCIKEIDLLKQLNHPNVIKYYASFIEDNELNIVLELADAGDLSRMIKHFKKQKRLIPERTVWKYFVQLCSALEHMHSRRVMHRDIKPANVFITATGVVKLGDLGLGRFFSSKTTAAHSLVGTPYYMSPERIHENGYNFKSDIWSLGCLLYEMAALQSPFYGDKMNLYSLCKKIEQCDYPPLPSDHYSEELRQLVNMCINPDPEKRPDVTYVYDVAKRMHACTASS

[10] = target: Serine/threonine-protein kinase WNK3 (Homo sapiens) (UniProt Q9BYP7); experiment: Inhibition of human recombinant Wnk3 at 40 nM related to control ULK1
Chain of Serine/threonine-protein kinase WNK3 (Homo sapiens) (Q9BYP7 whole entry): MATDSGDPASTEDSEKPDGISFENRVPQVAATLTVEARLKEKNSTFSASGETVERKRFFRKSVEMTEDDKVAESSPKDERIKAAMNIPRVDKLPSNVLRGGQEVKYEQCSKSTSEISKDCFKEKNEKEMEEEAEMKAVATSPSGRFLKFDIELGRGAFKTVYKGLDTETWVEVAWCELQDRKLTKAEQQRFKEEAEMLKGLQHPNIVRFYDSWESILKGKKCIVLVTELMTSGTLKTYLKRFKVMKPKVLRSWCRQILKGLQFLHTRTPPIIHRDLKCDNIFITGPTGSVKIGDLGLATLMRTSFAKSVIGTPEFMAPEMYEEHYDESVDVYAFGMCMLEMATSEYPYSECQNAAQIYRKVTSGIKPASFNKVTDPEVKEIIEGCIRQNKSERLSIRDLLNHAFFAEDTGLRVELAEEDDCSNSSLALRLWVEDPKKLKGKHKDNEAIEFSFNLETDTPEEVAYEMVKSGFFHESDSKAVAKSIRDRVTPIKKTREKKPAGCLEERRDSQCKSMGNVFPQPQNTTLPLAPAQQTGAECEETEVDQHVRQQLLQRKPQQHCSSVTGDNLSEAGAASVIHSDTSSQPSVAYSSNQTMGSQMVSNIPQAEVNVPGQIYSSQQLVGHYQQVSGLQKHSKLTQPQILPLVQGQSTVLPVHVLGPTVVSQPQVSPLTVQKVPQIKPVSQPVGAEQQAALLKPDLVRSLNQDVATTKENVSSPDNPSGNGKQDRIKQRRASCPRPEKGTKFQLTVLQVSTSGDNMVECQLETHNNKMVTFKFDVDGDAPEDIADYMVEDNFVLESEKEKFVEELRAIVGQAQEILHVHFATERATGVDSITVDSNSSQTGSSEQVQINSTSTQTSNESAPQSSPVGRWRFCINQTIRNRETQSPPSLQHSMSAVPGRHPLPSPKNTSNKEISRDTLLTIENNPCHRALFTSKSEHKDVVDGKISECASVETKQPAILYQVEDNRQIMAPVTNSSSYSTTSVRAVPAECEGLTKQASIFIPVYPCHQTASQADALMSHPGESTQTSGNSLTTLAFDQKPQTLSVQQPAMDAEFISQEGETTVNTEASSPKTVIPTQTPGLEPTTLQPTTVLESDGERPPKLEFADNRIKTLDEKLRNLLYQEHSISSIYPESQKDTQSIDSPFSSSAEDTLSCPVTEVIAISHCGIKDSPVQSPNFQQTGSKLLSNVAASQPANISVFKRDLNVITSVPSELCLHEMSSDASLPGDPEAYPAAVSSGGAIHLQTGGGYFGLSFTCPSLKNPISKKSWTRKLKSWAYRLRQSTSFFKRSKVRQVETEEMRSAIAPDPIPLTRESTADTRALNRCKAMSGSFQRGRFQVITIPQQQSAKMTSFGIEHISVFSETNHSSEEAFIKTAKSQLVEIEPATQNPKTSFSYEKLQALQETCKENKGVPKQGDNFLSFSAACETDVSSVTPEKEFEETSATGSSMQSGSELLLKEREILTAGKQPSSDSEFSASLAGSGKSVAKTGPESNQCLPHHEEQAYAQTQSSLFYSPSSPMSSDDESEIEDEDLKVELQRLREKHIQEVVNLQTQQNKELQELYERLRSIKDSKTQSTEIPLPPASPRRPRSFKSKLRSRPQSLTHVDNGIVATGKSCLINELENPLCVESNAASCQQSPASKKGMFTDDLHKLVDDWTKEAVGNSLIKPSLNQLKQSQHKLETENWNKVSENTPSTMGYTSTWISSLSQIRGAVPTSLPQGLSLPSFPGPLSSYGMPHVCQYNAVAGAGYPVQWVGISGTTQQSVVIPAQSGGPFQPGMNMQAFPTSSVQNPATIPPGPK

[11] = target: Receptor tyrosine-protein kinase erbB-4 (Homo sapiens) (UniProt Q15303); experiment: Inhibition of human recombinant ErbB4 at 15 nM in presence of ATP by radiometric assay relative to control
[12] = target: T3, Protein kinase C zeta type (Homo sapiens) (UniProt Q05513); experiment: Inhibition of human recombinant PKCz at 15 nM related to control ULK1
T3 sequence (whole entry): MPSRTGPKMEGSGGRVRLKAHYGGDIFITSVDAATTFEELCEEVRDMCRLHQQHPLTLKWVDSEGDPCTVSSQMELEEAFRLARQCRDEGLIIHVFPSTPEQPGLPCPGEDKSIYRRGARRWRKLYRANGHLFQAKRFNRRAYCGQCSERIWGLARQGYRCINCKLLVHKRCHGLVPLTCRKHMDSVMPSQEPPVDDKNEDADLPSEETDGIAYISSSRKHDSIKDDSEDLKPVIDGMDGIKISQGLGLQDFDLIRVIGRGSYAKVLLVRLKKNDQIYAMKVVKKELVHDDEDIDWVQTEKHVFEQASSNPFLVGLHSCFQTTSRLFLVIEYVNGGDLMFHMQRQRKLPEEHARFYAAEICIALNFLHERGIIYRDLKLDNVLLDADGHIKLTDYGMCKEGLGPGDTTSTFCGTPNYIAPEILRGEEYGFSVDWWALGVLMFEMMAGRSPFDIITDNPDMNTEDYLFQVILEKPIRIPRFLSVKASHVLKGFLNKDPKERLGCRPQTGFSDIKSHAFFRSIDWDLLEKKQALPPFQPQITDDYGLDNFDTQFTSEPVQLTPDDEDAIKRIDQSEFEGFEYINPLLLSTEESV

[13] = target: RAC-beta serine/threonine-protein kinase (Homo sapiens) (UniProt P31751); experiment: Inhibition of human recombinant AKT2 at 15 nM related to control ULK1
Chain of RAC-beta serine/threonine-protein kinase (Homo sapiens) (P31751 whole entry): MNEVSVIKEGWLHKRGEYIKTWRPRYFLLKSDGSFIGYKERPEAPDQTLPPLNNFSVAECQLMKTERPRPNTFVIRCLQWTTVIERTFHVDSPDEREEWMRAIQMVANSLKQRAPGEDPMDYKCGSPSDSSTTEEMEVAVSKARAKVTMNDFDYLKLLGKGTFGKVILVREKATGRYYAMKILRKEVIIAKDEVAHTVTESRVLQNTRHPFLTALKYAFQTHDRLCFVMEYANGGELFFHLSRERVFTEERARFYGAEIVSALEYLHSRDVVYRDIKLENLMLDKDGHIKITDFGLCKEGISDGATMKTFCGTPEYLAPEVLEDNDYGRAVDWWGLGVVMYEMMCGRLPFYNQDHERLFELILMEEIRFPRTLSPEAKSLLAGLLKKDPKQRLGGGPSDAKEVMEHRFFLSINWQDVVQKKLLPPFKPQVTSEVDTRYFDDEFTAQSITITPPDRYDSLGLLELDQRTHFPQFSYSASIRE

[14] = target: Mitogen-activated protein kinase kinase kinase kinase 4 (Homo sapiens) (UniProt O95819); experiment: Inhibition of human recombinant HGK at 15 nM related to control ULK1
[15] = target: Serine/threonine-protein kinase WNK1 (Homo sapiens) (UniProt Q9H4A3); experiment: Inhibition of human recombinant Wnk1 at 15 nM in presence of ATP by radiometric assay relative to control
[16] = target: Serine/threonine-protein kinase MARK2 (Homo sapiens) (UniProt Q7KZI7); experiment: Inhibition of human recombinant MARK2 at 15 nM related to control ULK1
Chain of Serine/threonine-protein kinase MARK2 (Homo sapiens) (Q7KZI7 whole entry): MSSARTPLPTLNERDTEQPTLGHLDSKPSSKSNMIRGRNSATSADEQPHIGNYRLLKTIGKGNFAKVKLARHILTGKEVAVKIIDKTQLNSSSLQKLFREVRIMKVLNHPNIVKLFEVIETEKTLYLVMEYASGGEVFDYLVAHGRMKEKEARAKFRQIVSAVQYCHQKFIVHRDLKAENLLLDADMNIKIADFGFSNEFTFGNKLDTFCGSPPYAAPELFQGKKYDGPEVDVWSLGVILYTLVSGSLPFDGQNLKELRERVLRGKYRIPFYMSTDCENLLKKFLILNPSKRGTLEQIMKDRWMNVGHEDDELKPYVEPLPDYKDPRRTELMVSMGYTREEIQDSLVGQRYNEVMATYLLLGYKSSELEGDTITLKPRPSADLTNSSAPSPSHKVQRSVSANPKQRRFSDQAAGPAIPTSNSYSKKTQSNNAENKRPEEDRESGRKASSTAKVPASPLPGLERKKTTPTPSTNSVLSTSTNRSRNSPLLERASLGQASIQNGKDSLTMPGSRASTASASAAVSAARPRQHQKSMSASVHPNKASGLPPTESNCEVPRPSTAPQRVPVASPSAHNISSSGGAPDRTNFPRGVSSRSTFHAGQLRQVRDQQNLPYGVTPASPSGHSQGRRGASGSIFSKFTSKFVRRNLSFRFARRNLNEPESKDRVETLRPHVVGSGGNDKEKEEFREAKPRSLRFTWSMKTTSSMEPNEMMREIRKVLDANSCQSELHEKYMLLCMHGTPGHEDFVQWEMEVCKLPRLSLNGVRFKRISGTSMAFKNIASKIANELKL

- fold change (FC) [1]: 1.18
- fold change (FC) [2]: 0.07
- fold change (FC) [3]: 0
- fold change (FC) [4]: 0.01
- inhibition [5]: 2%
- inhibition [6]: 0%
- inhibition [7]: 4%
- fold change (FC) [8]: 0.43
SMILES: CNC(=O)c1ccccc1Oc1nc(Nc2cc(OC)c(OC)c(OC)c2)ncc1Br

- inhibition [9]: 0%
- fold change (FC) [10]: 0.04
SMILES: O=C(N[C@@H](C1CC1)C(F)(F)F)c1cc(-c2cnn3cc(-c4ccc(F)cc4)cnc23)cs1

- inhibition [11]: 0%
- fold change (FC) [12]: 0
- fold change (FC) [13]: 0
- fold change (FC) [14]: 0
- inhibition [15]: 4%
- fold change (FC) [16]: 0.53
SMILES: CC(C)[C@H](NC(=O)c1cc(-c2cnn3cc(-c4ccc(OCCN5CCCCC5)cc4)cnc23)cs1)C(F)(F)F
